Test results reported in patent publication US8129355B2, “Ketone ligands for modulating the expression of exogenous genes via an ecdysone receptor complex” (priority 2002, dated 2012).
Where two headings read alike, the source gives them in different places.

Experiments:
[1] = molecular target: T1, GAL4 DBD-CfEcR(DEF)/VP16AD-MmRXRE (Choristoneura fumiferana, UniProt O77240); assay: cell-based; details: for fold induction at 33 µM: CHO, read-out: Fold Induction Average, 13B3 Assay (33 μM); for 13B3 Rel Max FI: maximum fold induction at any concentration relative to that of GS-E ligand
T1 sequence (O77240 1-513): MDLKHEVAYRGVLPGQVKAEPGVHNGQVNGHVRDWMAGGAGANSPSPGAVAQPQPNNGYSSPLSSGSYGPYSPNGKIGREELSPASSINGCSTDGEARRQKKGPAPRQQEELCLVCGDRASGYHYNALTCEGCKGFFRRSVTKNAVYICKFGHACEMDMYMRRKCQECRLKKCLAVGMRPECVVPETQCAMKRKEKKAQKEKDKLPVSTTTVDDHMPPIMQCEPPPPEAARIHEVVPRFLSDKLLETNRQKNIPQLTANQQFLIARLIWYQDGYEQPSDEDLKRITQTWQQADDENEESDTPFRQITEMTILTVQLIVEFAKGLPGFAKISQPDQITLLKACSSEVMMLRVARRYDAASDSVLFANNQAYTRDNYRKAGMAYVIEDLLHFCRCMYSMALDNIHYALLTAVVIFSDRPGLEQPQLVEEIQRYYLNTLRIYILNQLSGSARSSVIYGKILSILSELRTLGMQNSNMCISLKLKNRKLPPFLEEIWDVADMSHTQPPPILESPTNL
In short: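 Stable CHO clone 13B3 expressing GAL4 DBD-CfEcR(DEF) and VP16AD-mouse RXR(DE) with GAL4 RE-luciferase reporter. Ligands tested at 8 concentrations, 33–0.01 μM; luciferase read 48 h after treatment. Fold induction versus DMSO; BC50 from three-parameter logistic fit.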

[2] = molecular target: T2, GAL4 DBD (1-147)-CfEcR(DEF)/VP16AD-βRXREF-LmUSPEF (Choristoneura fumiferana, UniProt O77240); assay: 27-63 assay: luciferase reporter gene expression in stable CHO cell clone 27-63; details: for 27-63 Rel Max FI: maximum fold induction at any concentration relative to that of GS-E ligand; for CC50: read-out: 27-63 LC50, average, dose response, three-parameter logistic model; for fold induction at 33 µM: CHO, read-out: Fold Induction Average, 27-63 Assay (33 μM)
T2 sequence (O77240 191-513): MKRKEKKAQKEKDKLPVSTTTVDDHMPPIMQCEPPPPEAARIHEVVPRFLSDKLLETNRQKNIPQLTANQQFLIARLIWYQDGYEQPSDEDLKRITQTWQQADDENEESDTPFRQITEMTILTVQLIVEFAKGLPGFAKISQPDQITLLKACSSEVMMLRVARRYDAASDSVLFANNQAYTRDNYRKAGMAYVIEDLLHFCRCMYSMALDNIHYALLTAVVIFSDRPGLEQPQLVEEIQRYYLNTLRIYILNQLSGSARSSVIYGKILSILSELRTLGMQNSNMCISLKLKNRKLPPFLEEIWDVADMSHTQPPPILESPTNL
T2 sequence (P28702 296-455 partner limits assumed): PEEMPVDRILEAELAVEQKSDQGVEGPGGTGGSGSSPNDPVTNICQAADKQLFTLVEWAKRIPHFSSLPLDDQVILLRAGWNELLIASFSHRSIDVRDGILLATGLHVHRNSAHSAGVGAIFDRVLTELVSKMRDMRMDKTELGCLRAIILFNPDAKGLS
In short: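 CHO clone stably expressing GAL4 DBD-CfEcR(DEF) and VP16AD-HsRXRβ/LmUSP EF chimera plus a 5XGAL4RE-luciferase reporter; ligands given at 8 concentrations (33 μM to 0.01 μM), luminescence read 48 h after treatment. Fold induction versus DMSO cells; BC50 from three-parameter logistic fit.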

[3] = single dose 33 μM, RLU ligand treated / RLU DMSO treated cells

SMILES	EC50 [1] [µM]	fold induction at 33 µM [1]	13B3 Rel Max FI [1]	27-63 Rel Max FI [2]	CC50 [2] [µM]	fold induction at 33 µM [2]	EC50 ([1]; read-out: 13B3 EC50, average, dose response, three-parameter logistic model) [µM]	Fold Induction Average, 13B3 Assay (33 μM) [1, 3]	Fold Induction Average, 13B3 Assay (33 μM) [1]	Fold Induction Average, 27-63 Assay (33 μM) [2, 3]
CCC(CC)(NC(=O)c1cccc(OC)c1C)C(=O)c1ccccc1OC [Example 37]	> 33	885	0.08	0.81	~18	–	–	–	–	–
CCC(CC)(NC(=O)c1cccc(OC)c1C)C(=O)c1ccc(F)cc1 [Example 38]	> 33	18	0.00	0.00	> 33	–	–	–	–	–
COc1ccccc1C(=O)C1(NC(=O)c2cccc(OC)c2C)CCCC1 [Example 40]	~15	2170	0.58	0.67	6.61	–	–	–	–	–
COc1cccc(C(=O)NC2(C(=O)c3ccc(F)cc3)CCCC2)c1C [Example 42]	> 33	4	0.00	0.01	> 33	–	–	–	–	–
COc1cccc(C(=O)NC2(C(=O)c3ccccc3C)CCCCC2)c1C [Example 44]	> 33	36	0.00	0.07	> 33	–	–	–	–	–
COc1ccccc1C(=O)C1(NC(=O)c2cccc(OC)c2C)CCCCC1 [Example 45]	1.35	92900	0.67	0.71	1.03	–	–	–	–	–
COc1ccc(C(=O)C2(NC(=O)c3cccc(OC)c3C)CCCCC2)cc1 [Example 46]	> 33	102	0.00	0.00	> 33	5	–	–	–	–
CCC(CC)(NC(=O)c1cccc(OC)c1C)C(=O)c1cccc(C)c1 [Example 48]	≥ 33	12	0.00	0.11	> 33	–	–	–	–	–
CCC(CC)(NC(=O)c1cccc(OC)c1C)C(=O)c1cccc(OC)c1 [Example 49]	> 33	–	0.00	0.00	> 33	–	–	–	–	–
CCC(CC)(NC(=O)c1cccc(OC)c1C)C(=O)c1ccc(F)c(C)c1 [Example 50]	> 33	1	0.00	0.00	> 33	–	–	–	–	–
CCC(CC)(NC(=O)c1cccc(OC)c1C)C(=O)c1cc(C)cc(C)c1 [Example 51]	~15	1380	0.64	0.54	6.23	–	–	–	–	–
COc1cccc(C(=O)NC(C)(CC(C)C)C(=O)c2cccc(C)c2)c1C (centres unmarked) [Example 52]	> 33	114	0.00	0.04	~12	–	–	–	–	–
COc1cccc(C(=O)C(C)(CC(C)C)NC(=O)c2cccc(OC)c2C)c1 (centres unmarked) [Example 53]	> 33	–	0.00	0.00	> 33	–	–	–	–	–
COc1cccc(C(=O)NC(C)(CC(C)C)C(=O)c2cc(C)cc(C)c2)c1C (centres unmarked) [Example 55]	3.42	24700	0.21	0.62	3.85	–	–	–	–	–
COc1cccc(C(=O)NC2(C(=O)c3ccc(F)cc3)CCCCC2)c1C [Example 60]	> 33	578	0.01	0.35	~9	–	–	–	–	–
COc1cccc(C(=O)NC2(C(=O)c3cc(C)cc(C)c3)CCS(=O)(=O)CC2)c1C [Example 62]	> 33	3	0.00	0.04	~30	224	–	–	–	–
COc1cccc(C(=O)NC(C)(C(=O)c2ccccc2C)C(C)C)c1C (centres unmarked) [Example 63]	> 33	14	0.03	0.68	27.2	–	–	–	–	–
COc1ccc(C(=O)C2(NC(=O)c3cccc(OC)c3C)CCCCC2)c(OC)n1 [Example 64]	3.79	599	0.81	0.82	3.12	–	–	–	–	–
COc1cc(C(=O)C2(NC(=O)c3cccc(OC)c3C)CCCC2)cc(OC)c1C [Example 65]	–	–	0.03	0.28	> 20	–	~20	19	–	–
COc1cc(C(=O)C2(NC(=O)c3cccc(OC)c3C)CCCCC2)cc(OC)c1C [Example 66]	23.8	357	0.50	0.76	14.5	–	–	–	–	–
COc1cccc(C(=O)NC2(C(=O)c3cc(F)c(F)c(OC)c3)CCCC2)c1C [Example 67]	17.6	555	0.50	0.77	6.59	–	–	–	–	–
COc1cccc(C(=O)NC2(C(=O)c3cc(F)c(F)c(OC)c3)CCCCC2)c1C [Example 68]	8.79	819	1.00	0.98	3.7	–	–	–	–	–
COc1cccc(C(=O)NC2(C(=O)c3ccccc3)CCCCC2)c1C [Example 69]	19.4	164	0.19	0.84	14.4	–	–	–	–	–
COc1cccc(C(=O)C(C)(C)NC(=O)c2ccccc2OC)c1 [Example 117]	–	–	–	–	–	–	–	–	12	1
CCCCC(=O)C1(NC(=O)c2cccc(OC)c2C)CCCCC1 [Example 120]	14.9	367	0.27	0.65	9.05	–	–	–	–	–
